Data published in patent US20160279204A1, “PEPTIDES AND PHARMACEUTICAL COMPOSITIONS FOR USE IN THE TREATMENT BY NASAL ADMINISTRATION OF PATIENTS SUFFERING FROM ANXIETY AND SLEEP DISORDERS” (MAX-PLANCK-GESELLSCHAFT ZUR FÖRDERUNG DER WISSENSCHAFT E.V., priority 2011, published 2016).
“Also recorded” adds a separate entry of the source.

Legend:
Bl6 and HAB mice = test: Elevated plus maze (EPM) after intranasal NPS; type: in vivo, mouse
Procedure: Behavioural tests (open field, dark-light test and elevated plus maze (EPM)) following intranasal NPS application were performed sequentially. Each test lasted for 5 min with an inter-test interval of 5 min, as described previously (Bunck et al., 2009; Krömer et al., 2005). The animals' behaviour during testing was videotaped and relevant parameters were analysed with the tracking software ANY-maze version 4.30 (Stoelting, Wood Dale, Ill., USA). Native NPS (1 μg/μL) or vehicle (Ringer solution) were administered intranasally to the alert mouse as described above (total volume: 14 μL). Mice were tested 30 min and 4 hrs after intranasal administration of first drop. Animals were sacrificed 24 hrs after treatment and prefrontal cortex and bilateral hippocampi were prepared immediately and shock-frozen in methylbutane.
After having ascertained that nasally administered NPS reaches its target cells, anxiolytic effects of NPS were established for this transnasal delivery method. For this purpose, nasally 6.36 nmol NPS per mouse was administered to two mouse strains, Bl6 and HAB (high anxiety behaviour) mice. HAB animals, a mouse strain inbred for pathologically high anxiety, were chosen together with Bl6 mice to allow differentiation between the temporary condition of state anxiety and the general condition of trait anxiety (Bunck et al., 2009; Kromer et al., 2005). To accurately characterise the anxiety-relieving properties of NPS in these two mouse strains, three standardised behavioural assays measuring anxiolytic effects at two different time points after intranasal NPS administration were performed. In each test, the effects of intranasal NPS versus vehicle treatment on both anxiety- and locomotion-related indices were examined.

[1] = tested on: CA3-CA1 synapses of the VH; test: Field potential recordings in VH slices after intranasal NPS; design: species or system mouse; settings: for paired-pulse facilitation: interstimulus intervals 25, 50, 100, 200 ms
Procedure: Mice were then allowed to rest for 2 h before slice preparation and electrophysiological recording.
Brains were dissected and placed in ice-cold carbogenated ACSF. 350 μm horizontal slices containing the VH were prepared using a vibroslicer. Afterwards, the slices were incubated for 30 min at 34° C. and subsequently stored at room temperature. For experiments, slices were placed in a submerged recording chamber and continuously superfused with carbogenated ACSF at a flow rate of 3 mL/min. Square pulse electrical stimuli (50 μs pulse width) were delivered via a bipolar tungsten electrode (insulated to the tip, 50 μm pole diameter) that was positioned within the stratum radiatum of the CA1 region. All recordings were performed at room temperature, low-pass filtered at 1 kHz, and digitised at 5 kHz. Evoked field excitatory postsynaptic potentials (fEPSPs) were recorded using glass micro-electrodes (1 MΩ open-tip resistance), filled with ACSF and also positioned within the CA1 stratum radiatum. Stimulus intensities were adjusted in a manner to produce a fEPSP of ˜50% of that amplitude at which a population spike becomes clearly observable. Paired-pulse facilitation was measured at interstimulus intervals of 25, 50, 100, 200, and 400 ms and the paired-pulse ratio was calculated as fEPSP2 amplitude/fEPSP1 amplitude.

[2] = tested on: Cy3-NPS uptake in mouse brain; test: Cy3-NPS uptake after ICV pre-injection of native NPS; type: in vivo; settings: native NPS at 5 fold concentration, 10 min prior to ICV Cy3-NPS (0.2 nmol per mouse)
Procedure: The mice were sacrificed 30 min post-injection.
To clarify the mechanism of intracellular Cy3-NPS uptake, native, i.e. unlabeled, NPS at 5 fold concentration was injected unilaterally 10 min prior to ICV injection of Cy3-NPS (0.2 nmol per mouse). […] This points towards a receptor-mediated uptake mechanism, since, as shown for other neuropeptides (cf. Grady et al., 1996; Hubbard et al., 2009) pre-treatment with unlabeled agonists leads to receptor saturation, thereby antagonising the uptake of labelled agonist (here Cy3-NPS).

NPSR [3] = settings: cited from earlier work
NPSR [4] = target: T1, NPSR (Mus musculus, UniProt Q8BZP8); settings: rodents, ICV injection, US 2010/0056455; cited from earlier work
T1 construct: host or cells: rodent brain in vivo
T1 sequence (Q8BZP8 1-371): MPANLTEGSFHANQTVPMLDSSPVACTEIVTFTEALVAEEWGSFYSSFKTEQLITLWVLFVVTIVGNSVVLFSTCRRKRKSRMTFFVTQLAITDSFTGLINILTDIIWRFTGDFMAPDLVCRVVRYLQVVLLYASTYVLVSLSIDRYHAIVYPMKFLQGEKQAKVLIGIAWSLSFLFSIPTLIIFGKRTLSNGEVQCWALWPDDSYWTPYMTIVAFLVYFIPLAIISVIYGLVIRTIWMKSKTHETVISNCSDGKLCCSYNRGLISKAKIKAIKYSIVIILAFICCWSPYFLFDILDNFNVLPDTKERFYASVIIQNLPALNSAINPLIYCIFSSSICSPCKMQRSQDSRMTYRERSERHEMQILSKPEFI

C57BL/6N mice = test: Dark-light test after bilateral NPS injection into CA1 of the VH; type: in vivo, mouse; settings: 0.1 nmol NPS each side into CA1 of VH, 30 min
Procedure: Animals were fixed in a stereotactic frame and maintained under isoflurane anesthesia (Forene® 100%, V/V; induction: 2.5%; maintenance: 1.5%; in O2; flow rate: 1 L/min). The mice received acute analgesic treatment with Metacam s.c. during surgery (0.5 mg/kg; in NaCl). 23 gauge stainless-steel guide cannulas were implanted in the CA1 region of the VH at the following coordinates: 3.1 mm posterior, ±3 mm lateral from bregma, and 2 mm ventral from the skull surface (Franklin and Paxinos, 2007). The guide cannulas were fixed with two screws and a two-component adhesive. For behavioural experiments, animals were implanted bilaterally for later bilateral injection, whereas for Cy3-NPS injections, implantation was performed unilaterally. The animals were allowed to recover for at least 6 days before starting the behavioural experiments. Substance infusions were carried out manually, on mice anesthetised by brief inhalation of isoflurane, using a 30 gauge injection cannula connected to a Tygon tube and a 10 μL Hamilton syringe. […]
Mice were injected bilaterally either with 0.1 nmol NPS in 0.5 μL ACSF for each side or with 0.5 μL of ACSF for each side. […] Animal behaviour was videotaped and relevant parameters were analysed using the tracking software ANY-maze version 4.30 (Stoelting, Wood Dale, Ill., USA). […]

With “neuropeptide S (SFRNGVGSGVKKTSFRRAKQ; Neuropeptide S; UniProt P0C0P7 70-89, looked up) [NPS, peptide agonist of neuropeptide S receptor (NPSR); native NPS, rat, from Bachem]” the “behavioural differences versus vehicle in EPM” value (Bl6 and HAB mice; Bl6 and HAB mice, intranasal 6.36 nmol per mouse, 30 min) was “no behavioural differences”, the “time on the open arms” value (Bl6 and HAB mice; Bl6 mice, intranasal, 4 hrs) was “significantly increased” and the “total number of entries” value (Bl6 and HAB mice; Bl6 mice, intranasal, 4 hrs) was “no difference”. For the same substance, the “any parameter tested in the EPM” value (Bl6 and HAB mice; HAB mice, intranasal, 4 hrs) was “no differences”, the “magnitude of LTP induced by high-frequency stimulation” value ([1]; C57BL/6N mice) was “weakened; also recorded: decreased the magnitude of LTP” and the “input-output curve (fEPSP amplitudes)” value ([1]; C57BL/6N mice, approximately 3 h after treatment) was “shift of input-output curves towards bigger fEPSP amplitudes; also recorded: shift of the input-output curve towards bigger fEPSP amplitudes”. The paired-pulse facilitation ([1]; C57BL/6N mice) was “weakened; also recorded: reduced paired-pulse facilitation”, the “input-output curve (fEPSP amplitudes)” value ([1]; HAB mice) was “increase; also recorded: shift of the input-output curve towards bigger fEPSP amplitudes” and the “magnitude of LTP” value ([1]; HAB mice) was “reduction; also recorded: decreased the magnitude of LTP”. For the same substance, the paired-pulse facilitation ([1]; HAB mice) was “reduction; also recorded: reduced paired-pulse facilitation”, the “effect of pre-injection on Cy3-NPS uptake” value [2] was “reduced Cy3-NPS uptake throughout the brain” and the “response of NPSR-KO mice to NPS treatment” value (NPSR [3]; NPSR-KO mice, Duangdao et al., 2009) was “resistant”. For the same substance, the anxiolytic effects (NPSR [3]; rodents, intracerebral and ICV injection) was “strong anxiolytic effects”, the “locomotor activity and wakefulness” value (NPSR [4]) was “increased locomotor activity and wakefulness” and the “anxiety- and locomotion-related behaviour in the dark-light test” value (C57BL/6N mice) was “did not affect locomotion; also recorded: not altered”.
